Measurements published in US4060652A (priority 1976, dated 1977).
“Also recorded” adds a separate entry of the source.

Experiments:
[1] = tested on: nervomuscular conduction, anterior tibial muscle; experiment: Neostigmin antagonism of nervomuscular block in cats; type: in vivo
Description: (§1) Cats were narcotized (with chloralose, 50 mg per kg body weight, and urethane, 500 mg/kg, intraperitoneally) or decerebrated at the quadrigeminal bodies level. The lungs were ventilated artificially whenever necessary. Contractions of the anterior tibial muscle were recorded in isotonic concitions in response to electric stimulation of the peripheral part of n. peroneus with supramaximum pulses of 0.1 msec at a frequency of 0.1-100 Hz.
For example, even with a 5-fold dose of tercuronium, muscle contractility was restored already in 2 to 5 minutes following a single injection of neostigmin in a dose of 0.1 mg/kg, and in 15-20 minutes the recovery of the contactile function was complete.
In the case of pancuronium and α-tubocurarin, the restoration within these short periods of time could only be attained with 2-3 fold doses of these muscle relaxants. If the dose of pancuronium was increased 4 to 5 times, weak contractions of the muscle were observed not sooner than in 9 to 10 minutes and the contraction was, restored completely only 30 minutes after the injection of neostigmin (six experiments). The restoration of muscle contractility is delayed even longer in the case of α-tubocurarin.

rabbits [2] = experiment: Chronic toxicity in rabbits; type: in vivo
Description: Tercuronium was given intravenously to four rabbits, once a day in the course of twelve days, in a dose that induced the head-drop symptom, i.e. 0.02 to 0.024 mcM/kg. Physiological solution was injected instead of Tercuronium to two other rabbits (controls). The animals were weighed daily, their rectal temperature taken, and behaviour observed. Clinical analysis of urine and blood was performed three times. At the end of the experiment, the rabbits were killed (phlebotomy). The liver, kidneys, heart, lungs, adrenal glands, spleen, as well as marginal ear vein, into which Tercuronium had been injected, were histologically studied.

[3] = tested on: blood coagulation and erythrocytes; experiment: Effect on blood coagulation rate and resistance of erythrocytes; type: in vivo; details: two rabbits, two narcotized cats
[4] = Effect on sympathetic ganglia, third eyelid contraction in cats; type: in vivo; details: cat, in vivo, iv, read-out: ganglioblocking dose as multiple of myoparalytic dose
Description: (§2) Experiments were carried out on narcotized cats. A peripheral part of the sympathetic column on the neck was stimulated with electric pulses at 5 Hz. The duration of the stimulus was 1 msec, the amplitude 5 V. The contractions of the third eyelid (nictiating membrane) and the arterial (carotid) pressure were recorded with a mercury pressure gauge. We determined the intravenous dose of Tercuronium, α-tubocurarin and pancuronium that decreased the height of contraction of the third eyelid by 50 to 60 percent in conditions of prolonged stimulation of the sympathetic column.

sympathetic ganglia = experiment: as above; type: in vivo
Description: as §2

rabbits [5] = experiment: Allergizing action, Arthus-Sakharov phenomenon in rabbits; type: in vivo; details: seven subcutaneous injections at 5-day intervals
Description: In order to study the allergizing action of Tercuronium, we used the Arthus-Sakharov phenomenon. Experiments were carried on three rabbits. Tercuronium was injected to each rabbit in a dose of […] subcutaneously on the left side of the back in a volume of 0.2 to 0.25 ml, and 1 ml of horse serum was injected into the right side of the back (also subcutaneously). We made seven injections at 5-day in tervals. Horse serum alone was injected to the fourth (control) rabbit in the same order.

M-cholinoreceptors = experiment: Depression after intravenous acetylcholine in cats; type: in vivo; details: 0.1 to 1.0 mcM/kg; acetylcholine 3 mg/kg; three cats
Description: Experiments were carried out on narcotized cats (chloralose and urethane, intraperitoneally).

patients [6] = experiment: Surgical operations, second series (intubation and maintenance); type: in vivo, patients (human)
Description: (§3) We tried Tercuronium as a muscle relaxant in surgical operations on the abdominal and thoracic organs in 150 patients. The operations were carried out in conditions of intubation narcosis and artificial lung ventilation. Ether, fluorothane, nitrous oxide and barbiturates were used as anesthetics.
In the second series of observations (30 operations), Tercuronium was used for both maintaining muscle relaxation and intubation of the trachea. For this purpose, Tercuronium was used intravenously in a dose of 0.25 to 0.3 mg/kg. […] The relaxation continued for about an hour. For a longer relaxation of muscles, a repeated injection of Tercuronium in a dose of 0.05 to 0.08 mg/kg was required.

[7] = tested on: nervomuscular conduction, anterior tibial muscle; experiment: Nervomuscular block in cats, indirect stimulation of anterior tibial muscle; type: in vivo
Description: The preparation was studied in acute experiments on cats, rabbits, mice and pigeons, in experiments on phrenico-diaphragm preparations of rats, and also on the straight muscle of a frog abdomen. The properties of Tercuronium were compared with those of α-tubocurarin and pancuronium.
as §1

[8] = tested on: postsynaptic membrane of skeletal muscle; experiment: Site of action: close intra-arterial acetylcholine and direct stimulation; type: in vivo; details: cats
Description: as §1
The blocking effect of Tercuronium is due to its action on the postsynaptic membrane of skeletal muscle.

patients [9] = experiment: Surgical operations, first series (maintenance of relaxation); type: in vivo, patients (human)
Description: as §3
In the first series of observations (120 operations) Tercuronium was used as the main muscle relaxant for maintaining relaxation of the muscles. Tracheal intubation was carried out with muscle relaxation induced by dithilin-group agents. […] Complete muscle relaxation with the absence of active respiration continued on an average of 40 minutes. If, with the first signs of restoration of the muscle tone, we made another intravenous injection of Tercuronium in a dose constituting 1/3 to 1/2 of the initial one, complete relaxation continued for further 60 - 90 minutes.

albino mice = experiment: Inhibition of turning from the lateral position in mice; type: in vivo
From the text: In experiments on albino mice, the dose of Tercuronium injected into the tail vein, that inhibited the symptom of turning from the lateral position in 50 percent of mice (ED50) was 0.06 mcM/kg (18 experiments); and 50 percent of mice perished from paralysis of the respiratory muscles (LD50) following an injection of 0.09 mcM/kg of Tercuronium.

[10] = 0.02 to 0.024 mcM/kg daily, twelve days
[11] = 0.08 micromole per kg intravenous

With `CC[N+](CC)(CC)c1ccc(-c2ccc(-c3ccc([N+](CC)(CC)CC)cc3)cc2)cc1` [Tercuronium, p,p"-bis-triethylammonio-n-terphenyl dibenzenesulphonate] the “time to complete recovery of contractile function after neostigmin” value ([1]; 5-fold dose, neostigmin 0.1 mg/kg) was 15 to 20 min, the “strength of neostigmin antagonism compared with other relaxants” value ([1]; cats) was “stronger that toward α-tubocurarin or pancuronium; also recorded: stronger with Tercuronium than with pancuronium or α-tubocurarin” and the “number of myoparalytic doses whose blocking effect is completely removed by neostigmin” value ([1]; neostigmin 0.1 mg/kg intravenous, within five minutes) was “five”. The “restoration from block by neostigmin” value ([1]; neostigmin 0.05 to 0.1 mg/kg intravenous) was “fully and immediately restored”, the “behaviour and rectal temperature” value (rabbits [2]; [10]) was “no appreciable changes” and the “blood and urine analysis” value (rabbits [2]; [10]) was “did not find any pathological inclusions or changes”. For the same molecule, the “histological examination of organs” value (rabbits [2]; [10]) was “Nor did we discover any pathological changes”, the “sensitivity of animals in the course of the experiment” value (rabbits [2]; 0.02 to 0.024 mcM/kg intravenous daily, twelve days) was “did not change in the course of the experiment” and the “irritating action at site of administration” value (rabbits [2]; ear vein) was “no signs of irritating action”. For the same molecule, the “blood coagulation rate and resistance of the erythrocytes” value [3] was “did not discover any effect”, the selectivity ratio [4] was 10 to 15 and the “arterial pressure at ganglioblocking dose” value (sympathetic ganglia) was “the arterial pressure dropped as well”. For the same molecule, the local allergic reaction (rabbits [5]) was “no reaction”, the “depression after intravenous acetylcholine” value (M-cholinoreceptors) was “did not produce depression” and the “cardiovascular disorders or other complications” value (patients [6]; 0.25 to 0.3 mg/kg) was “not accompanied by cardiovacular disorders or any other complications”. The duration of relaxation (patients [6]; 0.25 to 0.3 mg/kg intravenous) was “about an hour”, the intubation conditions (patients [6]; 0.25 to 0.3 mg/kg intravenous) was “unobstructed intubation” and the postoperative complications (patients [6]; postoperative period) was “no cases of muscle atomia, respiratory insufficiency, or recurarization”. For the same molecule, the “efficiency of proserpin as deblocking agent” value (patients [6]; proserpin) was “complete”, the “dependence of block on stimulation frequency” value [7] was “more manifest with increasing frequency of pulse stimuli; also recorded: tetanization of the motor nerve at a frequency of 50 to 100 Hz produces a pessimal reaction in the muscle” and the “influence of other agents on action” value [7] was “lessened by the action of neostigmin, succinylcholine, decamethonium, and acetylcholine and strengthened by α-tubocurarin”. For the same molecule, the “mean duration of effect” value [7] was “eight”, the “block of nervomuscular conduction” value [7, 11] was 95-100% and the “time to block following injection” value [7, 11] was 40 to 60 s. The “time to complete restoration of muscle contractility” value ([7]; after injection) was 10 ± 1.5 min, the “dose blocking nervomuscular conduction (95-100 percent)” value ([7]; intravenous, 0.1 Hz) was 0.08 ± 0.002 micromole per kg and the “site of blocking action” value [8] was “contraction of muscles induced by acetylcholine injected by the close intra-arterial method, was inhibited simultaneously with the block of the nervomuscular condution; also recorded: it contracted in response to direct stimuli”. The “arterial pressure and frequency of heart contractions” value (patients [9]; 0.12 - 0.15 mg/kg) was “No changes in arterial pressure ar frequency of heart contractions, that could be attributed to the injection of Tercuronium, were observed”, the “duration of complete muscle relaxation with absence of active respiration” value (patients [9]; 0.12 - 0.15 mg/kg intravenous, average) was 40 min and the “electromyographic character of action” value (patients [9]; electromyographic analysis) was “nondepolarizing muscle relaxant”. The postoperative complications (patients [9]; postoperative period) was “did not observe any case of insufficient efficacy of proserpin, muscular atomia, or insufficiency of active respiration, or recurarization”, the “restoration of active respiration by proserpin” value (patients [9]; proserpin 2.5 mg at end of operation) was “always resulted in quick (within a few minutes) restoration of active respiration in full volume” and the ED50 (albino mice; Mus musculus, iv) was 0.06 µmol/kg. For the same molecule, the “myoparalytic action compared with pancuronium and α-tubocurarin” value (albino mice; mice) was “several times lower than that of pancuronium and several times higher than that of α-tubocurarin”.
